Measured values as given in US10947260B2, “Phosphinolactone derivatives and pharmaceutical uses thereof” (INSTITUT NATIONAL DE LA SANTE ET DE LA RECHERCHE MEDICALE …, priority 2016, dated 2021).

Key:
[1] = system: mice treated with Aβ25-35; test: Passive avoidance test, Aβ25-35 model; type: in vivo; details: 0.1 and 0.3 mg/kg IP; Days 8 and 9
Procedure: The amyloid-β[25-35] peptide (Aβ25-35) and control peptide (Sc.Aβ) were obtained from Genepep (Saint-Jean-de-Vedas, France). They were solubilized in injectable distilled water at a concentration of 3 mg/ml and stored at −20° C. Before injection, the peptides were incubated at 37° C. for 4 days, which enabled the Aβ25-35 peptide but not the Sc.Aβ, to form oligomers. They were administered via intracerebroventricular route (ICV). The animals were anesthetized by inhaling 2.5% isoflurane (TEM) and were given 3 μl of peptide solution via direct ICV route (Haley and McCormick's method). For injection a 10 μl Hamilton micro-syringe was used at a flow rate of 1 μl/min.
The apparatus contained two compartments (15×20×15 cm in height) with one light part having walls in white PVC and the other dark with walls in black PVC and a grid floor. A vertical sliding door separated each compartment. A 60 W lamp was positioned 40 cm above the white compartment during the experiment. Electrical shocks (0.3 mA for 3 s) were delivered to the grid floor by means of a scrambled shock generator (Lafayette Instruments, Lafayette, United States). The vertical sliding door was first closed during the training session. […] Step-through latency (STL) i.e. the time taken to enter the dark compartment and the number of cries, were recorded. […] Step-through latency was recorded up to 300 s. […]

APPSwe mice = test: Object recognition test, APPSwe mice; type: in vivo; details: 2-month treatment
Procedure: FIG. 9: Spatial learning in pool (a-c) and object recognition (d-f) for APPSwe mice after 2-month treatment with compound 3b. Pool: acquisition profiles of WT mice treated with V and 3b (2 mg/kg) (a) or APPSwe mice (b). (c) Presence in training quadrant (T) and mean in the other quadrants (o) during trial test performed 48 h after the last training session. Friedman non-parametric ANOVA with repeated measures: Fr=21.7, p<0.001 for the group WT/V, Fr=21.8, p<0.001 for the group WT/3b at (a); Fr=13.0, p<0.05 for group APPSwe/V, Fr=12.2, p<0.05 for group APPSwe/3b at (b). […]
The apparatus consisted of four square-shaped arenas (50 cm×50 cm×50 cm in height) made of white plexiglass and placed on a platform equipped with infrared light-emitting diodes (IR). The locomotor activity of the animal and position of the nose were able to be captured by an IR-sensitive camera and analysed using Videotrack and Nosetrack software. […] Each mouse was placed in the open field and exploratory activity and nose position were recorded for 10 min. Activity was analysed in terms of number of contacts with the objects and contact time. […] Each mouse was again placed in the open field and exploratory activity recorded for 10 min. Activity was analysed in similar manner. […]

## CC1(C)COP(=O)(c2ccc(Cl)cc2)C(C)(C)N1 (racemic) [Compound 3c, (±)-2-(4-Chlorophenyl)-2-oxo-3,3,5,5-tetramethyl-[1,4,2]-oxazaphosphinane]
[1]
  long-term memory response (passive avoidance step-through latency): appeared effective
APPSwe mice; 1 mg/kg/d
  decrease in number of contacts with objects, APPSwe animals: blocked
APPSwe mice; session 3
  deficit of novel object preference (contacts, contact time), APPSwe animals: significantly blocked or attenuated
